Holding throughout (assay): microbe, parasite or virus in culture
Experiment [1] has as its system pseudotyped VSV G particles (VSVpp) in Huh7-high CD81 cells. The class given is cell-based, vesicular stomatitis virus. The conditions noted are these: Vesicular stomatitis virus, 72 h, read-out: VSVpp (EC50, μM).
The subject of experiment [2] is Pseudotyped HCV GT1a particles (HCVpp), entry into Huh7-high CD81 cells. The class given is cell-based, HCV GT1a H77 strain. The settings on record: Hepatitis C virus, 72 h, read-out: HCVpp GT-1a (EC50, μM).
In experiment [3] the test system is Pseudotyped HCV GT1b particles (HCVpp), entry into Huh7-high CD81 cells. The class given is cell-based, HCV GT1b Con1 strain. The conditions noted are these: Hepatitis C virus, GT1B, 72 h, read-out: HCVpp GT-1b (EC50, μM).

Where a name gives a salt, the structure may show the parent alone.

With `N#Cc1cccc(-c2c(Cl)cc(Nc3n[nH]c(N)n3)cc2Cl)c1` [Compound 103, 4′-(5-Amino-1H-[1,2,4]triazol-3-ylamino)-2′,6′-dichloro-biphenyl-3-carbonitrile], the EC50 in experiment [1] was 13.3 µM; in experiment [2], 0.025 µM; in experiment [3], 0.269 µM.

With `CS(=O)(=O)Nc1ccc(-c2c(Cl)cc(Nc3n[nH]c(N)n3)cc2Cl)cc1` [Compound 111, N-[4′-(5-Amino-1H-[1,2,4]triazol-3-ylamino)-2′,6′-dichloro-biphenyl-4-yl]-methanesulfonamide], the EC50 turned out to be 7.53 µM in experiment [1], 0.003 µM in experiment [2] and 0.039 µM in experiment [3].

For the compound `Nc1nc(Nc2cc(Cl)c(-c3ccc(OCC4CNC4)cc3)c(Cl)c2)n[nH]1` [Compound 32, N*3*-[4′-(Azetidin-3-ylmethoxy)-2,6-dichloro-biphenyl-4-yl]-1H-[1,2,4]triazole-3,5-diamine; hydrochloride], the EC50 in experiment [1] came out at 6.1 µM; in experiment [2], 0.006 µM; in experiment [3], 0.116 µM.

As for `Nc1nc(Nc2ccc(-c3ccc(NC(=O)CCCC[C@@H]4SC[C@@H]5NC(=O)N[C@@H]54)cc3)cc2)n[nH]1` (stereo in doubt) [Compound 54, 5-((3aS,4S,6aR)-2-Oxo-hexaneahydro-thieno[3,4-d]imidazol-4-yl)-pentanoic acid [4′-(5-amino-1H-[1,2,4]triazol-3-ylamino)-biphenyl-4-yl]-amide], the 50% effective concentration (EC50) in experiment [1] is > 10 µM; in experiment [2] it was 5.73 µM; in experiment [3] it was 10 µM.

Consider `N#Cc1cc(-c2c(Cl)cc(Nc3n[nH]c(N)n3)cc2Cl)ccc1Cl` [Compound 105, 4′-(5-Amino-1H-[1,2,4]triazol-3-ylamino)-4,2′,6′-trichloro-biphenyl-3-carbonitrile], for which the EC50 in experiment [1] was found to be 16.8 µM; in experiment [2] it was 0.039 µM; in experiment [3] it was 0.472 µM.

Take `CNC(=O)c1ccc(-c2c(Cl)cc(Nc3n[nH]c(N)n3)cc2Cl)cc1` [Compound 116, 4′-(5-Amino-1H-[1,2,4]triazol-3-ylamino)-2′,6′-dichloro-biphenyl-4-carboxylic acid methylamide]: the EC50 is 29.4 µM in experiment [1], 0.002 µM in experiment [2] and 0.086 µM in experiment [3].

As for `Nc1nc(Nc2cc(Cl)c(-c3cccc(Cl)c3)c(Cl)c2)n[nH]1` [Compound 92, N3-(2,3′,6-Trichlorobiphenyl-4-yl)-1H-1,2,4-triazole-3,5-diamine], the EC50 in experiment [1] is 35.5 µM; in experiment [2] it was 0.034 µM; in experiment [3], 0.57 µM.

For the compound `Nc1nc(Nc2cc(Cl)c(-c3ccccc3)c(Cl)c2)n[nH]1` [Compound 48, N*3*-(2,6-Dichloro-biphenyl-4-yl)-1H-[1,2,4]triazole-3,5-diamine], the EC50 in experiment [1] was 30.5 µM; in experiment [2] it was 0.01 µM; in experiment [3] it was 0.533 µM.

For `Nc1nc(Nc2cc(Cl)c(-c3ccc(NC(=O)CCCC[C@@H]4SC[C@@H]5NC(=O)N[C@@H]54)cc3)c(Cl)c2)n[nH]1` [Compound 39, 5-((3aS,4S,6aR)-2-Oxo-hexaneahydro-thieno[3,4-d]imidazol-4-yl)-pentanoic acid [4′-(5-amino-1H-[1,2,4]triazol-3-ylamino)-2′,6′-dichloro-biphenyl-4-yl]-amide], the EC50 in experiment [1] was > 10 µM; in experiment [2], 0.002 µM; in experiment [3], 0.09 µM.

For the compound `Nc1nc(Nc2cc(Cl)c(-c3ccccc3Cl)c(Cl)c2)n[nH]1` [Compound 101, N-3-(2,6,2′-Trichloro-biphenyl-4-yl)-1H-[1,2,4]triazole-3,5-diamine], the EC50 in experiment [1] was determined as 13.2 µM; in experiment [2], 0.037 µM; in experiment [3], 0.514 µM.

On to `CS(=O)(=O)NCc1ccc(-c2c(Cl)cc(Nc3n[nH]c(N)n3)cc2C(F)(F)F)cc1` [Compound 186, N-((4′-(5-amino-1H-1,2,4-triazol-3-ylamino)-2′-chloro-6′-(trifluoromethyl)biphenyl-4-yl)methyl)methanesulfonamide], for which the 50% effective concentration (EC50) in experiment [1] turned out to be 19.7 µM; in experiment [2] it was 0.011 µM; in experiment [3] it was 0.038 µM.

Regarding `Nc1nc(Nc2cc(Cl)c(-c3ccc(NC(=O)CN4CCS(=O)(=O)CC4)cc3)c(C(F)(F)F)c2)n[nH]1` [Compound 240], the EC50 was > 10 µM in experiment [1], 0.011 µM in experiment [2] and 0.171 µM in experiment [3].

Regarding `Nc1nc(Nc2cc(Cl)c(-c3cccc4ccccc34)c(Cl)c2)n[nH]1` [Compound 95, N-3-(3,5-Dichloro-4-naphthalen-1-yl-phenyl)-1H-[1,2,4]triazole-3,5-diamine], the results for the EC50 in experiment [1], in experiment [2] and in experiment [3] were 24.1 µM, 0.028 µM and 0.229 µM, respectively.

Take `COc1ccc(-c2c(Cl)cc(Nc3n[nH]c(N)n3)cc2C(F)(F)F)cc1S(=O)(=O)NC(C)(C)CO` [Compound 218, 4′-(5-Amino-1H-[1,2,4]triazol-3-ylamino)-6′-chloro-4-methoxy-2′-trifluoromethyl-biphenyl-3-sulfonic acid (2-hydroxy-1,1-dimethyl-ethyl)-amide]: the values for the 50% effective concentration (EC50) in experiment [1], in experiment [2] and in experiment [3] were 20.3 µM, 0.003 µM and 0.005 µM, respectively.

For the compound `CC(C)(C)OC(=O)N1CCC(S(=O)(=O)c2ccc(-c3c(Cl)cc(Nc4n[nH]c(N)n4)cc3C(F)(F)F)cc2)CC1` [Compound 1, 4-[4′-(5-Amino-1H-[1,2,4]triazol-3-ylamino)-2′-chloro-6′-trifluoromethyl-biphenyl-4-sulfonyl]-piperidine-1-carboxylic acid tert-butyl ester], the EC50 was > 10 µM in experiment [1], 0.014 µM in experiment [2] and 0.001 µM in experiment [3].

In the case of `Nc1nc(Nc2ccc(-c3cccc(F)c3)c(Cl)c2)n[nH]1` [Compound 148, N*3*-(2-Chloro-3′-fluoro-biphenyl-4-yl)-1H-[1,2,4]triazole-3,5-diamine], the EC50 came to 33.8 µM in experiment [1], 0.301 µM in experiment [2] and 3.34 µM in experiment [3].

For the compound `CS(=O)(=O)c1cccc(-c2c(Cl)cc(Nc3n[nH]c(N)n3)cc2Cl)c1` [Compound 114, N-3-(2,6-Dichloro-3′-methanesulfonyl-biphenyl-4-yl)-1H-[1,2,4]triazole-3,5-diamine], the values for the half-maximal effective concentration (EC50) in experiment [1], in experiment [2] and in experiment [3] were 18.2 µM, 0.01 µM and 0.069 µM, respectively.

On to `COc1cccc(-c2c(Cl)cc(Nc3n[nH]c(N)n3)cc2Cl)c1` [Compound 100, N-3-(2,6-Dichloro-3′-methoxy-biphenyl-4-yl)-1H-[1,2,4]triazole-3,5-diamine], for which the EC50 stood at 14.3 µM in experiment [1], 0.062 µM in experiment [2] and 0.839 µM in experiment [3].

`COc1ccc(-c2c(Cl)cc(Nc3n[nH]c(N)n3)cc2C(F)(F)F)cc1S(=O)(=O)N1CCN(C(=O)OC(C)(C)C)CC1` [Compound 166, tert-butyl 4-(4′-(5-amino-1H-1,2,4-triazol-3-ylamino)-2′-chloro-4-methoxy-6′-(trifluoromethyl)biphenyl-3-ylsulfonyl)piperazine-1-carboxylate]: the EC50 in experiment [1] was > 10 µM; in experiment [2] it was 0.003 µM; in experiment [3] it was 0.005 µM.

For `Nc1nc(Nc2cc(Cl)c(-c3ccc(Cl)cc3)c(Cl)c2)n[nH]1` [Compound 96, N-3-(2,6,4′-Trichloro-biphenyl-4-yl)-1H-[1,2,4]triazole-3,5-diamine], the EC50 in experiment [1] worked out at 4.27 µM; in experiment [2] it was 0.009 µM; in experiment [3] it was 0.927 µM.

On to `COc1ccc(-c2c(Cl)cc(Nc3n[nH]c(N)n3)cc2Cl)cc1` [Compound 98, N-3-(2,6-Dichloro-4′-methoxy-biphenyl-4-yl)-1H-[1,2,4]triazole-3,5-diamine], for which the EC50 turned out to be 5.25 µM in experiment [1], 0.01 µM in experiment [2] and 0.353 µM in experiment [3].

Consider `Nc1nc(Nc2cc(Cl)c(-c3ccc(C(F)(F)F)cc3)c(Cl)c2)n[nH]1` [Compound 99, N-3-(2,6-Dichloro-4′-trifluoromethyl-biphenyl-4-yl)-1H-[1,2,4]triazole-3,5-diamine], for which the EC50 in experiment [1] turned out to be 20.6 µM; in experiment [2], 0.056 µM; in experiment [3], 1.57 µM.

In the case of `COc1cc(-c2c(Cl)cc(Nc3n[nH]c(N)n3)cc2C(F)(F)F)ccc1S(=O)(=O)NC(C)(C)C` [Compound 179, 4′-(5-amino-1H-1,2,4-triazol-3-ylamino)-N-tert-butyl-2′-chloro-3-methoxy-6′-(trifluoromethyl)biphenyl-4-sulfonamide], the EC50 worked out at 8.55 µM in experiment [1], 0.002 µM in experiment [2] and 0.02 µM in experiment [3].

For `Nc1nc(Nc2cc(Cl)c(-c3ccc(S(=O)(=O)N4CCNCC4)cc3)c(C(F)(F)F)c2)n[nH]1` [Compound 33, N*3*-[2-Chloro-4′-(piperazine-1-sulfonyl)-6-trifluoromethyl-biphenyl-4-yl]-1H-[1,2,4]triazole-3,5-diamine], the EC50 in experiment [1] came to 34.3 µM; in experiment [2], 0.019 µM; in experiment [3], 0.099 µM.

`Nc1nc(Nc2ccc(-c3ccccc3)c(Cl)c2)n[nH]1` [Compound 144, N*3*-(2-Chloro-biphenyl-4-yl)-1H-[1,2,4]triazole-3,5-diamine]: the EC50 in experiment [1] is 34.8 µM; in experiment [2], 0.333 µM; in experiment [3], 2.92 µM.

In the case of `CS(=O)(=O)c1cccc(-c2c(F)cc(Nc3nc(N)n[nH]3)cc2C(F)(F)F)c1` [Compound 74, N^5-(2-Fluoro-3′-(methylsulfonyl)-6-trifluoromethylbiphenyl-4-yl)-1H-[1,2,4]-triazole-3,5-diamine], the EC50 is 16.9 µM in experiment [1], 0.055 µM in experiment [2] and 0.169 µM in experiment [3].

Take `CN(C)S(=O)(=O)c1ccc(-c2c(Cl)cc(Nc3n[nH]c(N)n3)cc2Cl)cc1` [Compound 123, 4′-(5-Amino-1H-[1,2,4]triazol-3-ylamino)-2′,6′-dichloro-biphenyl-4-sulfonic acid dimethylamide]: the EC50 was 11 µM in experiment [1], 0.002 µM in experiment [2] and 0.042 µM in experiment [3].

Usually EC50 stands for the midpoint of the concentration-response curve.

(Values after patent US9693997B2, “Antiviral compounds” (priority 2013, dated 2017).)
